Assay: Solubility of Iopamidol plotted against reflux time (FIG. 1)
Type: physicochemical
Experimental: With reference to FIG. 1, there is a graph showing the solubility of Iopamidol plotted against reflux time when a ratio of Iopamidol:water:ethanol 4:1:8 (w/v/v) is used in accordance with the method of the present invention. As shown in this graph, the reflux for 4 hours or greater allows the crystallized Iopamidol to have a solubility of 80% or greater. […] Because Iopamidol monohydrates or pentahydrates are of about 50% solubility, the method of the present invention can convert Iopamidol monohydrates or pentahydrates into Iopamidol anhydrides.
FIG. 1 is a graph showing the solubility change of the Iopamidol with reflux time.

Structure (SMILES)	solubility (hydrated crystalline forms)	solubility (crystallized Iopamidol, Iopamidol:water:ethanol 4:1:8 (w/v/v), reflux for 4 hours or greater) [%]
C[C@H](O)C(=O)Nc1c(I)c(C(=O)NC(CO)CO)c(I)c(C(=O)NC(CO)CO)c1I [Iopamidol monohydrates, Iopamidol]	about 50%	
C[C@H](O)C(=O)Nc1c(I)c(C(=O)NC(CO)CO)c(I)c(C(=O)NC(CO)CO)c1I [Iopamidol]		≥ 80
